Laboratory results from PMC11814485, “Screening of homing and tissue-penetrating peptides by microdialysis and in vivo phage display” (Life Science Alliance, 2025).

System: diabetic skin wounds
Assay: Homing of FAM-peptides to skin wounds in diabetic mice
Type: in vivo, mouse (BKS(D)-Lepr^db/JOrlRj)
Conditions: 1.5 mg/kg systemically, 150 min, day 7 wound, anti-FAM staining, one animal with two wounds per group
Text: Next, we wanted to study the utility of the newly identified peptides as vehicles for targeting diabetic skin wounds. Compromised angiogenesis in diabetic wounds leads to deficient granulation tissue formation and poses an important hindrance to systemic drug delivery. BALB/cJRj and diabetic male BKS(D)-Lepr^db/JOrlRj mice were wounded and systemically dosed with fluorophore-labeled peptides 7 d after the skin wounding. For all tested peptides, we observed peptide accumulation in the granulation tissue where angiogenesis takes place (Fig S6).
Figure S6. Microdialysis-captured peptides home to skin wounds in diabetic mice. […] Full-thickness wounds 6 mm in diameter were cut in the back skin of 14-wk-old male diabetic mice. After 7 d, 1.5 mg/kg of each peptide or PBS was injected systemically. The CAR peptide was used as a control. The peptide circulated for 150 min before the vasculature was perfused. The wounds were fixed with 4% PFA in PBS, and microscopic sections were stained with anti-FAM and hematoxylin. (A) Images of entire wounds. (B) Magnifications of areas marked in (A) with anti-CD31 staining of the adjacent sections. (A, B) Scale bars are 500 μm for (A) and 125 μm for (B). Images are representative of one animal with two wounds in each group.
Male BALB/cJRj and diabetic male BKS(D)-Lepr^db/JOrlRj mice were used for the peptide homing experiment. The BALB/cJRj mice were 8 wk old and weighed 24–28 g. […]
After 24-h (or 4 h for eyeballs) fixation in 4% PFA, the tissues were rinsed in 70% EtOH and embedded in paraffin. To avoid autofluorescence, the peptides were detected by staining the sections with rabbit anti-FITC/-FAM (71-1900; Thermo Fisher Scientific, 1:400 BALB/cJRj and C57BL/6Rj or 1:100 BKS(D)-Lepr^db/JOrlRj) in Dako antibody diluent (Agilent) and Biocare Medical Rabbit on Rodent (RMR622H; Biocare Medical) with XM-Factor (XMF963C; Biocare Medical) as described previously ([Robinson et al, 2010]; [Urakami et al, 2011]; [Toba et al, 2014]; [Pemmari, et al, 2020b]). […]

CDDYQQISC [FAM-labeled synthetic peptide …]
homing to skin wounds in diabetic mice: home and penetrate to the granulation tissue

CPKKHHLDC [FAM-labeled synthetic peptide …]
homing to skin wounds in diabetic mice: home and penetrate to the granulation tissue

CYHDTYPNC [FAM-labeled synthetic peptide …]
homing to skin wounds in diabetic mice: home and penetrate to the granulation tissue
